Data reported in patent US10513526B2, “Solid state forms of spiro-oxindole compounds” (Xenon Pharmaceuticals Inc., priority 2016, dated 2019).

Assay: Melting of Form A0 in dry N2 (heated to 140° C., cooled to room temperature)
Format: physicochemical
Conditions: heated to 140° C. in dry N2 atmosphere, then cooled to room temperature and crushed
Description: A. The amorphous form of funapide was generated by melting Form A0 of funapide in a dry N2 atmosphere optionally using the VT stage on the XRPD unit. The sample was heated to 140° C. and then cooled to room temperature and crushed. […] The sample was confirmed to be the amorphous form of funapide by XRPD.

- decomposition on melting: No decomposition was observed
SMILES: O=C1N(Cc2ccc(C(F)(F)F)o2)c2ccccc2[C@]12COc1cc3c(cc12)OCO3 [Form A0 of funapide]
